Measurements from ChEMBL document CHEMBL1147271, “New cytotoxic metabolites from a marine sponge Homaxinella sp” (2004).
In brackets after ≈: the same amount, converted by molar mass.

Experiments:
Format in all cases: functional
Conditions in all cases: read-out: ED50 (the source's name)
HCT-15 = assay: Cytotoxicity against human HCT15 cells
SK-MEL-2 = assay: Cytotoxicity against human SK-MEL-2 cells
XF498 = assay: Cytotoxicity against human XF498 cells
SK-OV-3 = assay: Cytotoxicity against human SKOV3 cells
A549 = assay: Cytotoxicity against human A549 cells

| SMILES | EC50 (HCT-15) [µg/mL] | EC50 (SK-MEL-2) [µg/mL] | EC50 (XF498) [µg/mL] | EC50 (SK-OV-3) [µg/mL] | EC50 (A549) [µg/mL] |
| --- | --- | --- | --- | --- | --- |
| COc1cccc2c1C(=O)c1c(O)c3c(c(O)c1C2=O)C[C@@](O)(C(=O)CO)C[C@@H]3O[C@H]1C[C@H](N)[C@H](O)[C@H](C)O1 [DOXORUBICIN] | 0.17 (≈ 0.313 µM) | 0.12 (≈ 0.221 µM) | 0.12 (≈ 0.221 µM) | 0.24 (≈ 0.442 µM) | 0.07 (≈ 0.129 µM) |
| CCCCC/C=C\C/C=C\C/C=C\C[C@@]1(O)C=CC(=O)C1 | 2.9 (≈ 10.1 µM) | 2.6 (≈ 9.01 µM) | 4.9 (≈ 17 µM) | 4.4 (≈ 15.3 µM) | 5.4 (≈ 18.7 µM) |
| CCCCC/C=C\C/C=C\C/C=C\CO | 25.5 (≈ 122 µM) | 74.1 (≈ 356 µM) | 30 (≈ 144 µM) | 19.8 (≈ 95 µM) | > 30 |
| CC/C=C\C/C=C\C/C=C\C/C=C\C[C@]1(OC)C=CC(=O)O1 [HOMAXINOLIDE B] | 17.5 (≈ 57.9 µM) | 4.5 (≈ 14.9 µM) | > 30 | > 30 | 32.1 (≈ 106 µM) |
| CCCCC/C=C\C/C=C\C/C=C\C[C@@]1(OC)C=CC(=O)O1 [HOMAXINOLIDE A] | 8.9 (≈ 29.2 µM) | 2.7 (≈ 8.87 µM) | 9.9 (≈ 32.5 µM) | 16.1 (≈ 52.9 µM) | 10.1 (≈ 33.2 µM) |
| CC/C=C/C/C=C\C/C=C\C/C=C\C[C@@]1(OC)C=CC(=O)O1 [HOMAXINOLIDE C] | 34.8 (≈ 115 µM) | 14.9 (≈ 49.3 µM) | > 30 | > 30 | > 30 |
